Measured values: US20070197509A1, “Compositions and methods for modulating gated ion channels” (PainCeptor Pharma Corporation, priority 2005, published 2007)
Entries after “also recorded” stand apart in the source; their conditions may differ.

Assays:
[1] = system: T1, hASIC3 (h3) and/or hASIC1a (h1a); experiment: FlexStation/FLIPR assay, channel not marked in the cell; assay type: cell-based, human; conditions: Table H, cells without channel mark; HEK293; read-out: EC50 (μM) Flex/FLIPR
T1 construct: EC50 (μM) in one experiment; HEK293
Source text: (§1) The MES-induced peak calcium response (or change in membrane potential), in the presence of test substance, is expressed relative to the MES response alone. Test substances that block the MES-induced calcium response (or change in membrane potential) are re-tested in triplicates. Confirmed hits are picked for further characterization by performing full dose-response curves to determine potency of each hit compound as represented by the IC50 values (i.e., the concentration of the test substance which inhibits 50% of the MES-induced calcium and/or membrane potentiation response; see, for example, FIG. 1).
The data shown in Table H was acquired using the FlexStation assay described in Example 1 on HEK293 cells expressing hASIC3 (h3) and/or hASIC1a (h1a).

hASIC1a [2] = molecular target: T2, hASIC1a (Homo sapiens, UniProt P78348); experiment: FlexStation/FLIPR calcium-imaging assay, acid (MES)-induced response in ASIC1a expressing cells; assay type: cell-based; set-up: expressed in transfected cells
T2 sequence (P78348 1-528): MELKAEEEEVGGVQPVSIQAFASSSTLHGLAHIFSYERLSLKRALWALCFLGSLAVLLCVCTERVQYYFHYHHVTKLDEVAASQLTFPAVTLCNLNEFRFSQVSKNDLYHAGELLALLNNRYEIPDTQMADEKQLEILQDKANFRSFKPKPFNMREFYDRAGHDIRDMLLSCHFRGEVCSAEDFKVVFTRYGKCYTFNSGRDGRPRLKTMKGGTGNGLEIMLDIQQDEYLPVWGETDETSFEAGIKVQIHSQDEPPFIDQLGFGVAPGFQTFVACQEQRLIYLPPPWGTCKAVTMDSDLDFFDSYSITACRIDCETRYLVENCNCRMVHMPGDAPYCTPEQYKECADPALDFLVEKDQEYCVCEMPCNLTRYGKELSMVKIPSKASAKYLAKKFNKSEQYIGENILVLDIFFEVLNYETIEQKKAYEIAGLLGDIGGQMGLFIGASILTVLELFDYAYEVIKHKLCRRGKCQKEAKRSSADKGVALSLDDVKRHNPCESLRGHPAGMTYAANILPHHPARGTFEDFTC
Description: Identification of ASIC Antagonists Using Calcium-Imaging
ASIC1a expressing HEK293 or CHO cells are grown in culture medium (DMEM with 10% FBS), in polystyrene culture flasks ([…]) at 37° C. in a humidified atmosphere of 5% CO2. Confluency of cells should be 80-90% on day of plating. Cells are rinsed with 10 ml of PBS and re-suspended by addition of culture medium and trituration with a 25 ml pipette.
The cells are seeded at a density of approximately 1×10^5 cells/ml for HEK293 and 8×10^4 for CHO cells (100 μl/well) in black-walled, clear bottom, poly-D-lysin pre-treated 96-well plates. Plated cells were allowed to proliferate for 48 h before loading with dye.
Fluo-4/AM (1 mg, Molecular Probes) is dissolved in 912 μl DMSO. The Fluo-4/AM stock solution (1 mM) is diluted with culture medium to a final concentration of 2 μM (loading solution).
The culture medium is aspirated from the wells, and 80 μl of the Fluo-4/AM loading solution is added to each well. The cells are incubated at 37° C. for 30 min. When CHO cells are used, probenicid at 2.5 mM (final concentration) is added in the loading solution.
After the loading period (15-20 min., the loading solution is aspirated and the cells are washed twice with 100 μl modified Assay Buffer (145 mM NaCl, 5 mM KCl, 5 mM CaCl2, 1 mM MgCl2, 10 mM HEPES, pH 7.4) to remove extracellular dye. Following the second wash, 100 μl modified Assay Buffer is added to each well and the fluorescence is measured in FLIPR™ or FlexStation™ (Molecular Devices, USA), or any other suitable equipment known to the skilled in the art. When CHO cells are used, probenicid at 2.5 mM (final concentration) is added in the wash buffer.
First addition: 50 μl test solution at a rate of 26 μl/sec and a starting height of 125 μl
Second addition: 50 μl MES solution (20 mM, 5 mM final concentration) at a rate of 26 μl/sec and a starting height of 115 μl.
Reading intervals: pre-incubation—120 sec. antagonist phase, addition of MES at 145 sec. and reading time with agonist 100 sec (total run time of 240 sec).
Fluorescence obtained after stimulation is corrected for the mean basal fluorescence (in modified Assay Buffer).
as §1

hASIC1a [3] = molecular target: T2, hASIC1a; experiment: Two-electrode voltage clamp in Xenopus laevis oocytes expressing hASIC1a (OpusExpress); assay type: cell-based; set-up: expressed in transfected cells; host or cells: Xenopus laevis oocytes, nuclear microinjection of cDNA (e.g. in pCDNA3); conditions: for effect on hASIC1a current evoked by pH 6.5 in oocytes (FIGS. 4A-4D): OpusExpress, two-electrode voltage clamp, dose-response
Method in brief: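 Two-electrode voltage clamp on Xenopus oocytes expressing homomeric hASIC1a, recorded on an automated multichannel system. Oocytes superfused with Ringer (HEPES, pH 7.4); currents evoked by MES-buffered acidic Ringer, with compound present in both control and acidic solutions, at room temperature.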

[4] = calcium mobilization assay, HEK293, n=3-7, read-out: FPAT-ASIC1a human/HEK293/k21 IC50

Row | EC50 [1] [µM] | IC50 (hASIC1a [2]; [4]) [µM] | effect on hASIC1a current evoked by pH 6.5 in oocytes (FIGS. 4A-4D) (hASIC1a [3]) | IC50 (hASIC1a [2]; FlexStation (Flex), Tables A-F, read-out: Biological Data (IC50 uM) h1a (Flex)) [µM] | inhibitory effect on acid-induced hASIC1a activity (FIG. 1) (hASIC1a [2]; HEK-293 transiently expressing hASIC1a, intracellular calcium, increasing concentrations) | IC50 (hASIC1a [3]; OpusExpress (OX), Tables A-F, h1a printed in some cells only, read-out: Biological Data (IC50 uM) h1a (OX)) [µM] | IC50 (hASIC1a [3]; Table H, read-out: IC50 (μM) Opus Express (h1a)) [µM] | SMILES
1 | < 10 | < 10 | effective modulators | – | – | – | – | COc1ccc(C(=O)CN2CCN(c3cc(C)nc4ccccc34)CC2)cc1 [Compound A, 1-(4-methoxy-phenyl)-2-[4-(2-methyl-quinolin-4-yl)-piperazin-1-yl]-ethanone]
2 | – | < 10 | dose-dependent reduction | – | – | – | – | Fc1cccc2c(OC3CCN(Cc4ccccc4)CC3)cc(C(F)(F)F)nc12 [Compound B, 4-(1-benzyl-piperidin-4-yloxy)-8-fluoro-2-trifluoromethyl-quinoline]

Row | SMILES | EC50 [1] [µM] | IC50 (hASIC1a [2]; [4]) [µM] | effect on hASIC1a current evoked by pH 6.5 in oocytes (FIGS. 4A-4D) (hASIC1a [3]) | IC50 (hASIC1a [2]; FlexStation (Flex), Tables A-F, read-out: Biological Data (IC50 uM) h1a (Flex)) [µM] | inhibitory effect on acid-induced hASIC1a activity (FIG. 1) (hASIC1a [2]; HEK-293 transiently expressing hASIC1a, intracellular calcium, increasing concentrations) | IC50 (hASIC1a [3]; OpusExpress (OX), Tables A-F, h1a printed in some cells only, read-out: Biological Data (IC50 uM) h1a (OX)) [µM] | IC50 (hASIC1a [3]; Table H, read-out: IC50 (μM) Opus Express (h1a)) [µM]
3 | Cc1cc(OC2CCN(Cc3ccccc3)CC2)c2ccccc2n1 [Compound R, 4-(1-benzyl-piperidin-4-yloxy)-2-methyl-quinoline] | > 10 | – | effective modulators; also recorded: dose-dependent reduction | 15 to 25 | dose-dependently inhibited | 2 to 10 | 1.5
